Common to all, as to type: cell-based
One assay has as its system Aβ42. The assay can be described thus: Aβ-lowering MSD electrochemiluminescent assay of conditioned media from CHO cells expressing human APP (Aβ42). As to conditions: MSD electrochemiluminescent assay, hAPP-REPNL751 CHO cells; read-out: Aβ42 EC50 for inhibition of Aβ42. The method, then: (§1) The activity of compounds in lowering the generation of Aβ40 and Aβ42, the most abundant forms of beta amyloid, from APP (amyloid precursor protein) was measured in an electrochemiluminescent (ECL) assay of conditioned media from chinese hamster ovary (CHO) cells stably expressing the human amyloid precursor protein (APP) reporter construct, hAPP-REPNL751 (Sughir, R. et al.; J. Biolog. Chem (1992) 267: 25602-25608). Aβ peptides were secreted at high levels into cell culture media by cells carrying the human APP transgene; compounds were tested for their capacity to modulate this production. The Aβ peptide in the conditioned medium was quantitated by a sandwich immunoassay with the MSD ECL detection system. Cell metabolism was measured using a 3-(4,5-dimethylthiazol-2-yl)-5-(3-carboxymethoxypheny)-2-(4-sulfophenyl)-2H-tetrazolium, inner salt (MTS) salt kit (which measures the mitochondrial activity of cells by the bioreduction of Owen's reagent). This assay consists of the following protocol:
(§2) 1. hAPP-REPNL751CHO cells were seeded into 96 well plates and incubated until about 60-70% confluence.
(§3) 2. Medium was removed, cells were washed, and fresh serum-free medium (Ultraculture) was put on cells.
(§4) 3. Compounds were diluted and then added to the cell medium.
(§5) 4. Cells were incubated, with compounds, for indicated times.
(§6) 5. Streptavidin coated Meso Scale Discover (MSD) plates (MSD standard MULTI-ARRAY® 96 plate, cat.# P11SA-1) were washed […] with TTBS (Tris-buffered saline, the TWEEN® 20 reagent).
(§7) 6. 20 μL conditioned medium were removed from the cells and added to the TTBS prewashed MSD plates.
(§8) 7. Standard curve dilutions of synthetic Aβ40 and Aβ42 were prepared and added to the MSD plates.
(§9) 8. A reagent mix was prepared in 1% MSD Blocker A (appropriate concentration of biotinylated 6E10 antibody, detection antibodies to Aβ40, Aβ42, and MSD ruthinylated tag antibody).
(§10) 9. 20 μL reagent mix was distributed to sample plate.
(§11) 10. Plates were incubated with shaking overnight at 4° C.
(§12) 11. Plates were washed 3× with TTBS.
(§13) 12. 150 μL read buffer was added per well (MSD® Read Buffer T, cat#R92TC-2, made 1× with distilled water).
(§14) 13. Plates were read in a MSD® plate reader within 2 hours.
(§15) Assays were accepted or rejected based upon specific performance criteria, including regression coefficient of standard curve, adequate signal to noise ratio, sample signals lying within the range of the standard curve, etc.: the specific parameters were established for each tissue type prior to performing an assay, and were included in the full analytical procedure.
(§16) Plate data from both assays (MTS and MSD® ELISA) were transferred into a Microsoft EXCEL® spreadsheet to determine the toxicity, and inhibition caused by the compounds. Standard curves of Aβ were generated using LSW™ toolbar Hill slope model 42, with 1/y weighting (general sigmoidal curve with Hill slope, a to d; y=(a−d)/(1+(x/c)̂b)+d). Inhibition data were expressed as a percent of the average of the Aβ values in the vehicle treated wells (all values are background subtracted), using LSW™ toolbar Hill Slope model 68 (ligand-receptor binding/sigmoidal, with Hill slope and Bmax to 0; y=Bmax*(1−(x̂n/(K̂n+x̂n))), after raw values were translated/transformed into absolute Aβ values utilizing the standard curve generated as described above (e.g. back calculate absolute Aβ values from the raw values utilizing standard curve). Onboard controls to verify assay performance were checked to assure that amyloid is within linear detection range of the assay, that cells were expressing correctly, and that the MSD itself was performing according to quality control (QC) standards.
(§17) % Inhibition>50% may be considered a positive response or an interesting result in this assay; EC50 determination were determined.
(§18) The beta amyloid inhibitory activity of compounds of formula (I) was determined using the MSD ECL assay. Inhibition of Notch processing was measured using the stable transfection reporter assay See, Table 1 below.

In the next assay the test system is Aβ40. The assay can be described thus: Aβ-lowering MSD electrochemiluminescent assay of conditioned media from CHO cells expressing human APP (Aβ40). As to conditions: MSD electrochemiluminescent assay, hAPP-REPNL751 CHO cells; read-out: Aβ40 EC50 for inhibition of Aβ40. The procedure:
as §1, §2, §3, §4, §5, §6, §7, §8, §9, §10, §11, §12, §13, §14, §15, §16, §17, §18

A further assay relates to Notch. The assay is described as follows: Stable transfection Notch reporter assay (HES1-SEAP, P8H6 CHO-K1 cells). The settings on record: stable transfection Notch reporter assay, 48 hours, read-out: Notch EC50 for inhibition of Notch.
Source text: A concern with compounds that lower beta amyloid synthesis by targeting the γ-secretase enzyme is that this enzyme also is involved in the cleavage of other substrates besides APP especially the Notch substrate. […] Thus, a selectivity of APP cleavage over Notch cleavage is desired in order to avoid G.I. side effects. The activity of compounds in cleaving Notch can be measured in a whole cell functional Notch assay. This is an assay to determine the effects of compounds on the S3 (γ-secretase like) processing of Notch. […] SEAP transactivation is then detected by luminescent assay. The assay consists of the following protocol:
• (i) Materials: The P8H6 inducible stable cell line was derived from T-REX™ CHO-K1, stably expressing Tet repressor, Notch (pZX1) and HES1-SEAP (pZX2) reporter constructs. A Wallac 1450 Victor™ Luminescence Counter was used to measure luminescent signal. All other materials and reagents were of highest quality available and were all from commercial sources.
(ii) Construct Description: • pZX1: Mouse Notch1 with deleted extracellular domain cloned at Hind III/Xho I sites of pcDNA5/TO vector: Ampicillin Resistance for bacteria, hygromycin resistance for cells. • pZX2: Mouse HES1 promoter together with reporter gene SEAP cloned at Not I/Apa I sites of pcDNA3.1 with deletion of CMV promoter.
(iii) Procedure: • 1. P8H6 cells were grown in Ham's F12 complete growth media containing 10% FBS (reduced tetracycline), 2 mM of L-glutamine, 1 mg/mL of hygromycin, 1 mg/mL of the GENETICIN® antibiotic, 10 μg/mL of Blasticidin and 1% Penicillin-Streptomycin were supplemented with doxycline with final induction concentration of 0.2 μg/mL. The cells were seeded in 96-well tissue culture plate at 8000/well. • 2. Test compounds in 0.2% DMSO/25 mM HEPES buffer were diluted at final working concentration of 20 μM, 6.7 μM, 2.2 μM, 741 nM, 247 nM, 82 nM, 27 nM, 9 nM and 3 nM. Diluted compounds then were added to P8H6 cells in 96-well tissue culture plates. For vehicle samples, the same volume of 0.2% DMSO/25 mM HEPES buffer was added. • 3. Cells were incubated at 37° C., 5% CO2 for 48 hours. • 4. SEAP levels in the conditioned media were assessed using the Clontech GREATESCAPE™ SEAP Chemiluminescence detection kit according to the manufacturer's instruction. Briefly, 15 μL of conditioned media were mixed with 45 μL of the dilution buffer and incubated at 65° C. for 45 minutes. After cooling, assay buffer was added and the sample was incubated with the CSPD® substrate. • 5. Luminescence was measured in a Wallac 1450 VICTOR™ luminescence counter.
EC50 was the compound concentration that was estimated to provide a 50% reduction of maximum response in Notch induced SEAP levels. An EC50 from a given assay may only be used for averaging if it has met the following criteria: • 1. There is a lower dose in the assay which gives a % Notch Activity>60% (bracketing lower dose). • 2. There is a higher dose in the assay which gives a % Notch Activity<30% (bracketing higher dose), and the maximum inhibition is reached (e.g., a given compound might achieve 80% inhibition (% Notch activity is about 20%) over several doses, and therefore 20% would be considered the maximum inhibition.
Data were analyzed in Microsoft EXCEL® format. EC50 was calculated by LSW using sigmoidal inhibition from B0 to nsb model (model 59). Each assay plate contained a dose response curve for the reference compound 5-chloro-N-[(1S,2R)-2-ethyl-4,4,4-trifluoro-1-(hydroxymethyl)butyl]thiophene-2-sulfonamide. This compound is discussed in International Patent Publication No. WO 2004/092155. The following data is not shown in that publication.
as §18
In general terms: A reporter such as luciferase makes a cellular process visible.

Drawing on patent US20090023801A1, “INHIBITORS OF BETA AMYLOID PRODUCTION” (Wyeth, priority 2007, published 2009), this text covers EC50 for nine molecules.

Read-outs that look alike come from different tables or passages of the source.

In the case of `O=S(=O)(N[C@@H](CO)[C@@H](c1cc(F)cc(F)c1)C(F)(F)F)c1ccc(Cl)s1.O=S(=O)(N[C@H](CO)[C@H](c1cc(F)cc(F)c1)C(F)(F)F)c1ccc(Cl)s1` (relative stereo) [Example 7, 5-Chloro-N-[(1S*,2S*)-2-(3,5-difluorophenyl)-3,3,3-trifluoro-1-(hydroxymethyl)propyl]thiophene-2-sulfonamide and 5-chloro-N-[(1R*,2R*)-2-(3,5-difluorophenyl)-3,3,3-trifluoro-1-(hydroxymethyl)propyl]thiophene-2-sulfonamide], the EC50 in the assay on Aβ42 is 8.75 µM; in the assay with Aβ40, 7.29 µM; with Notch, above 20 µM.

In the case of `O=S(=O)(N[C@H](CO)[C@@H](c1cc(F)cc(F)c1)C(F)(F)F)c1ccc(Cl)s1` (relative stereo) [Example 8, 5-Chloro-N-[(1S*,2R*)-2-(3,5-difluorophenyl)-3,3,3-trifluoro-1-(hydroxymethyl)propyl]thiophene-2-sulfonamide], the EC50 with Aβ42 is 0.08 µM; in the assay on Aβ40, 0.083 µM; with Notch (CHO-K1) it was 2.78 µM.

In the case of `O=S(=O)(N[C@H](CO)[C@@H](c1ccc(F)cc1)C(F)(F)F)c1ccc(Cl)s1` (relative stereo) [Example 9, 5-Chloro-N-[(1S*,2R*)-3,3,3-trifluoro-2-(4-fluorophenyl)-1-(hydroxymethyl)propyl]thiophene-2-sulfonamide], the EC50 is 0.178 µM in the assay on Aβ42, 0.187 µM with Aβ40 and above 20 µM in the assay on Notch (CHO-K1).

As for `O=S(=O)(N[C@H](CO)[C@H](c1ccc(F)cc1)C(F)(F)F)c1ccc(Cl)s1` (relative stereo) [Example 10, 5-Chloro-N-[(1S*,2S*)-3,3,3-trifluoro-2-(4-fluorophenyl)-1-(hydroxymethyl)propyl]thiophene-2-sulfonamide], the results for the EC50 in the assay with Aβ42, in the assay with Aβ40 and in the assay on Notch (CHO-K1) were 1.57 µM, 1.88 µM and above 20 µM, respectively.

Regarding `O=S(=O)(N[C@H](CO)[C@H](c1cccc(F)c1)C(F)(F)F)c1ccc(Cl)s1` (relative stereo) [Example 11, 5-Chloro-N-[(1S*,2S*)-3,3,3-trifluoro-2-(3-fluorophenyl)-1-(hydroxymethyl)propyl]thiophene-2-sulfonamide], the concentration for a half-maximal effect (EC50) with Aβ42 is 3.38 µM; with Aβ40, 4.06 µM; with Notch (CHO-K1) it was above 20 µM.

As to `O=S(=O)(N[C@H](CO)[C@@H](c1cccc(F)c1)C(F)(F)F)c1ccc(Cl)s1` (relative stereo) [Example 12, 5-Chloro-N-[(1S*,2R*)-3,3,3-trifluoro-2-(3-fluorophenyl)-1-(hydroxymethyl)propyl]thiophene-2-sulfonamide], the EC50 in the assay with Aβ42 was 0.098 µM; with Aβ40, 0.098 µM; with Notch (CHO-K1) it was 1.74 µM.

`O=S(=O)(N[C@H](CO)[C@@H](c1ccc(Cl)cc1)C(F)(F)F)c1ccc(Cl)s1` (relative stereo) [Example 13, 5-Chloro-N-[(1S*,2R*)-2-(4-chlorophenyl)-3,3,3-trifluoro-1-(hydroxymethyl)propyl]thiophene-2-sulfonamide]: the values for the EC50 with Aβ42, in the assay on Aβ40 and in the assay on Notch (CHO-K1) were 0.396 µM, 0.316 µM and 7.6 µM, respectively.

Turning to `O=S(=O)(N[C@@H](CO)[C@@H](c1ccccc1)C(F)(F)F)c1ccc(Cl)s1` (stereo in doubt) [Example 2, 5-Chloro-N-[(1R* ,2R*)-3,3,3-trifluoro-1-(hydroxymethyl)-2-phenylpropyl]thiophene-2-sulfonamide], the half-maximal effective concentration (EC50) with Aβ42 and in the assay on Aβ40 was above 15 µM each time.

Take `O=S(=O)(N[C@@H](CO)[C@H](c1ccccc1)C(F)(F)F)c1ccc(Cl)s1` [Example 3, 5-Chloro-N-[(1R,2S)-3,3,3-trifluoro-1-(hydroxymethyl)-2-phenylpropyl]thiophene-2-sulfonamide]: the EC50 in the assay on Aβ42 and with Aβ40 was above 15 µM in each case.

As usually defined, the EC50 is the concentration giving half of the maximal effect.
